Measurements taken from ChEMBL document CHEMBL5143737, “Identification of Human Alanine-Glyoxylate Aminotransferase Ligands as Pharmacological Chaperones for Variants Associated with Primary Hyperoxaluria Type 1” (J Med Chem, 2022).

What was measured:
Format in all cases: toxicity, cell-based, Cricetulus griseus
Conditions in all cases: chinese hamster, 168 h, time 7 day
CHO [1] = experiment: Cytotoxicity against CHO cells expressing AGT and glycolate oxidase assessed as reduction in cell viability at 50 uM measured after 7 days by crystal violet staining assay
CHO [2] = experiment: Cytotoxicity against CHO cells expressing AGT G41R variant and glycolate oxidase assessed as reduction in cell viability at 50 uM measured after 7 days by crystal violet staining assay
CHO [3] = experiment: Cytotoxicity against CHO cells expressing AGT G41R variant and glycolate oxidase assessed reduction in cell viability at 50 uM measured after 7 days in presence of pyridoxine by crystal violet staining assay

Row | SMILES | Activity (CHO [1]) | Activity (CHO [2]) | Activity (CHO [3])
1 | Cl.NOCc1ccc(F)cc1F | Non-Toxic | Non-Toxic | 
2 | NOCc1cc2ccccc2s1 | Non-Toxic |  | 
3 | COc1c(C)cnc(CON)c1C | Non-Toxic | Non-Toxic | Non-Toxic
4 | NOCc1cccc(-c2ccc(C(F)(F)F)cc2)c1 | Non-Toxic | Non-Toxic | Non-Toxic
5 | CN1CCN(c2cccc(CON)c2)CC1 | Toxic | Toxic | Toxic
